Entries after “also recorded” stand apart in the source; their conditions may differ.
Experiments:
Assay type in all cases: cell-based
[1] = tested on: Nrf2 translation (entire Nrf2 ORF mRNA); test: Western blot of Nrf2 translation in HEK 293T cells transfected with Nrf2 construct lacking amino acids 17-32; details: for Nrf2 translation (Nrf2 protein expression by blot): FIG. 3C / FIG. 4, HEK 293T cells, Nrf2 construct lacking amino acids 17-32 (no Keap1-mediated degradation)
From the text: (§1) FIGS. 3A to 3D show the construction of a translation reporter system to identify compounds that derepress Nrf2 translation. FIG. 3A is a schematic representation showing that the sequence of the firefly luciferase reporter gene was fused with the Seg3 fragment to create a translation reporter system i.e. a biosensor for Nrf2. […] A small library of 127 compounds containing more than 80 known antioxidants was screened to identify potential activators of Nrf2 translation. […] HEK 293T cells were transfected with a construct a Nrf2 lacking amino acids 17-32 to prevent the degradation mediated by Keap1.
HEK293T cells were transfected with an Nrf2 construct lacking amino acids that are required for KEAP1 mediated degradation. 24 hours later the cells were treated with Apigenin in incremental doses to evaluate Nrf2 translation activation by using Western blotting.

[2] = tested on: translation of Luciferase Reporter under translational control mediated by Sg3 of Nrf2; test: Nrf2 translation biosensor screen: firefly luciferase reporter fused with Seg3, stop codons in between; library of 127 compounds; details: FIG. 3B; screen of library of 127 compounds
From the text: as §1
A construct containing the luciferase gene fused with the Seg3 with stop codons in between the two fragments was developed. A library of 127 well known antioxidants was screened.
A stop codon is indicated with bold letters and a dark grey shade. The sequence corresponding to sg3 is indicated in the light grey shade area. The sequence was expressed using a plasmid with a CMV promoter.

Nrf2 = test: Nuclear translocation of Nrf2: subcellular fractionation and Western blot of HEK293T cells transfected with wildtype Nrf2; details: FIG. 6; HEK293T cells with wildtype Nrf2, harvested 12 hours after treatment, cytoplasm vs nucleus
Description: HEK293T cells were transfected with a plasmid containing the wildtype sequence of Nrf2. After 24 hours the cells were treated with Apigenin. After additional 12 hours, the cells were harvested and subjected to subcellular fractionation. The presence of Nrf2 in the cytoplasm and nucleus was evaluated using Western blotting. Additionally, tubulin and histone 3 were identified by Western blot to validate the subcellular fractionation.

In the case of CC(C)(C)c1cc(O)ccc1O [TBHQ], the “Nrf2 translation (Nrf2 protein expression by blot)” value [1] is reported as “no effect”.
In the case of O=c1cc(-c2ccc(O)c(O)c2)oc2cc(O)cc(O)c12 [luteolin], the “Nrf2 translation (Nrf2 protein expression by blot)” value [1] is reported as “increase the translation of Nrf2”.
For Oc1ccc(C=Cc2cc(O)cc(O)c2)cc1 [resveratrol], the “translation of the Luciferase Reporter under translational control mediated by Sg3” value [2] was “promoted the translation of Nrf2; also recorded: increased the translation” and the “Nrf2 translation (Nrf2 protein expression by blot)” value [1] was “potent inducers of Nrf2 translation”.
With C[S+]([O-])CCCCN=C=S (centres unmarked) [sulforaphane] the “Nrf2 translation (Nrf2 protein expression by blot)” value [1] was “no effect”.
O=c1c(O)c(-c2ccc(O)c(O)c2)oc2cc(O)cc(O)c12 [quercetin] was tested, and the “Nrf2 translation (Nrf2 protein expression by blot)” value [1] was “increase the translation of Nrf2”.
With O=c1cc(-c2ccc(O)cc2)oc2cc(O)cc(O)c12 [Apigenin] the “translation of the Luciferase Reporter under translational control mediated by Sg3” value [2] was “promoted the translation of Nrf2; also recorded: increased the translation”, the “Nrf2 translation (Nrf2 protein expression by blot)” value [1] was “potent activator of NRF2 translation” and the “Nrf2 translation (Nrf2 protein expression by blot)” value ([1]; listed as apigenin) was “potent inducers of Nrf2 translation; also recorded: most potent inducer of Nrf2 translation”. For the same molecule, the “Nrf2 translation activation, dose dependence” value ([1]; FIG. 5, HEK293T cells, treated 24 hours after transfection with incremental doses, Western blotting) was “activates Nrf2 translation in a dose-dependent manner” and the “nuclear translocation of Nrf2” value (Nrf2) was “nuclear translocation of Nrf2”.

Source: patent US10054583B2, “Nuclear factor-erythroid 2 related factor 2 (NRF2) biosensors and modulators of NRF2” (TEMPLE UNIVERSITY OF THE COMMONWEALTH SYSTEM OF HIGHER …, priority 2012, dated 2018)
